According to US20230338572A1, “ANTI-TM4SF1 ANTIBODY-DRUG CONJUGATES COMPRISING CLEAVABLE LINKERS AND METHODS OF USING SAME” (Angiex, Inc., priority 2020, published 2023):
Values belong to the molecule of their own block, whether it stands above or below them.

What was measured:
[1] = test system: MiaPaCa2; experiment: In vitro cell proliferation inhibition assay (Example 10); format: cell-based, human; settings: free drug/linker payload; 5 days
Description: (§1) The effects of antibody drug-conjugates (drug to antibody ratio (DAR) varying from 0.9 to 3.5) containing a drug (maytansine or camptothecin) assessed in cultured mouse (MS1) and human (HUVEC, and MiaPaCa2) cells. The structures of the ADC tested are listed in Table 8 and shown in FIG. 19 (ADC) and FIG. 26 (ADC2, ADC3, and ADC4). Both Exemplary Antibody 1 and Exemplary Antibody 2 contain human IgG1 constant region with YTEC mutation. Cells were incubated for 5 days with the antibody drug conjugate before assessing cell viability on day 5.
(§2) In this experiment, different payloads were respectively assessed in cultured mouse (MS1) and human (MiaPaCa2 and HUVEC) cells. Cells were treated incubated for 5 days with the antibody drug conjugate before assessing cell viability on day 5.

[2] = test system: HUVEC; experiment: as above; format: cell-based, human; settings: free drug/linker payload, 5 days
Description: as §1, §2

[3] = test system: MS1; experiment: as above; format: cell-based, mouse; settings: free drug/linker payload, 5 days
Description: as §1, §2

[4] = cited from earlier work
[5] = molecular target: T1, human TM4SF1 (transmembrane-4 L six family member-1), on HUVEC cells (UniProt P30408 1-202); experiment: flow cytometry, HUVEC
T1 chain: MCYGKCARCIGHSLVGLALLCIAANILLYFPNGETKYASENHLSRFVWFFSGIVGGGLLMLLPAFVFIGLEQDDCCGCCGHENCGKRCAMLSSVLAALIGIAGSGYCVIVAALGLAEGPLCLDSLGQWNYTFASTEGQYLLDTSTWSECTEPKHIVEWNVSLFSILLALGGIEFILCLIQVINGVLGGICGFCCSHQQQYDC

Molecule: Maleimide-ethylamino-nosyl-Ahx-Maytansine [payload 1]
EC50 [1]: 0.0395 nM
EC50 [2]: 0.114 nM

Molecule: Maleimide-tetrazine-PEG3-methyl-EDA-nosyl-Camptothecin [payload 2]
EC50 [3]: 6710 nM
EC50 [2]: 1450 nM

Molecule: Combretastatin [CA4P]
Overall survival ([4]; Phase II FALCON study, reduced from 16.2): 13.6 months
Patients who experienced heart attacks while being treated ([4]; human, in vivo): seven

Molecule: CC[C@@]1(O)C(=O)OCc2c1cc1n(c2=O)Cc2cc3ccccc3nc2-1 [payload 3, Camptothecin]
EC50 ([3]; Mus musculus, MS-1, 120 h): 34.3 nM
EC50 ([2]; Homo sapiens, HUVEC, 120 h): 1.89 nM

EC50 [5]: 1.75 nM
B1: AGX-A07 "YTEC" variant (anti-TM4SF1 antibody AGX-A07 with Fc mutations N297C, M252Y, S254T and T256E), naked antibody (antibody, V domains shown)
VH: QIQLVQSGPELKKPGETVKISCKASGYTFTNYGVKWVKQAPGKDLKWMGWINTYTGNPIYAADFKGRFAFSLETSASTAFLQINNLKNEDTATYFCVRFQYGDYRYFDVWGAGTTVTVSS
VL: QIILSQSPAILSASPGEKVTMTCRANSGISFINWYQQKPGSSPKPWIYGTANLASGVPARFGGSGSGTSYSLTISRVEAEDAATYYCQQWSSNPLTFGAGTKLELR
